In PubChem BioAssay (NCI):
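Growth conditions: 96-well plates. Treatment: test compound, 48 hours, 5 concentrations. Analysis: linear interpolation between bracketing concentrations; unreached endpoints set to highest concentration. Abbreviation: GI50, concentration required for 50% inhibition of growth. At the TGI there is no net growth.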

How the values were obtained:
Experiment in all cases: growth of human tumour cells (NCI), 48 h
[1] = test system: SR leukemia
[2] = test system: A549 NSCLC
[3] = test system: HS 578T breast
[4] = test system: NCI-H460 lung
[5] = test system: HCC-2998 colon
[6] = test system: MDA-MB-435
[7] = test system: PC-3 prostate
[8] = test system: CAKI-1 renal
[9] = test system: NCI-H226 lung
[10] = test system: BT-549 breast

## CC(NC1=NCCO1)c1cccc([N+](=O)[O-])c1 (centres undefined)
[1]
  TGI: > 100 µM
[2]
  TGI: > 100 µM
[3]
  TGI: > 100 µM
[4]
  TGI: > 100 µM
[5]
  TGI: > 100 µM
[6]
  TGI: > 100 µM
[7]
  TGI: > 100 µM
[8]
  TGI: > 100 µM
[9]
  TGI: > 100 µM

## O=C1CCC2(CC1CCSc1ccccc1)OCCO2 (centres undefined)
[1]
  TGI: > 100 µM
[2]
  TGI: > 100 µM
[3]
  TGI: > 100 µM
[4]
  TGI: > 100 µM
[5]
  TGI: > 100 µM
[6]
  TGI: > 100 µM
[7]
  TGI: > 100 µM
[8]
  TGI: > 100 µM
[9]
  TGI: > 100 µM

## O=C1OC2(C(F)(F)F)Oc3ccccc3CN2C12CCCCC2 (centres undefined)
[1]
  TGI: 74.8 µM
[2]
  TGI: > 100 µM
[4]
  TGI: 66.4 µM
[5]
  TGI: > 100 µM
[6]
  TGI: > 100 µM
[7]
  TGI: 88 µM
[8]
  TGI: 56.1 µM
[9]
  TGI: 90.8 µM
[10]
  TGI: > 100 µM

## CSc1nc(NC2OCC(O)C(O)C2O)c(N)c(=O)n1C (centres undefined)
[2]
  TGI: > 100 µM
[4]
  TGI: > 100 µM
[5]
  TGI: > 100 µM
[9]
  TGI: > 100 µM

## CCOP(=O)(OCC)/C(=C\N1C(=O)CC(=O)NC1=S)C(=O)OC
[2]
  TGI: > 100 µM
[4]
  TGI: > 100 µM
[5]
  TGI: > 100 µM
[6]
  TGI: > 100 µM
[8]
  TGI: > 100 µM
[9]
  TGI: > 100 µM
[10]
  TGI: > 100 µM

## NC(c1ccccc1)(C(F)(F)F)P1(=O)OC(=O)c2ccccc2O1 (centres undefined)
[1]
  TGI: > 100 µM
[2]
  TGI: > 100 µM
[4]
  TGI: > 100 µM
[5]
  TGI: > 100 µM
[6]
  TGI: > 100 µM
[7]
  TGI: > 100 µM
[8]
  TGI: > 100 µM
[9]
  TGI: > 100 µM
[10]
  TGI: > 100 µM

## COC(=O)c1nc(-c2ccc3c(n2)C(=O)C(N)=C(OC)C3=O)c(N)c(-c2ccc(OC)c(OC)c2O)c1C
[2]
  TGI: 2.76 µM
[5]
  TGI: 0.221 µM
[8]
  TGI: 3.28 µM
[9]
  TGI: 1.41 µM

## O=C(NNc1cn[nH]c(=O)c1Cl)/C(=C/c1ccc2c(c1)OCO2)NC(=O)c1ccccc1
[2]
  TGI: > 100 µM
[4]
  TGI: > 100 µM
[5]
  TGI: > 100 µM
[6]
  TGI: > 100 µM
[7]
  TGI: > 100 µM
[8]
  TGI: 56.2 µM
[9]
  TGI: > 100 µM
[10]
  TGI: 49.1 µM

## CCOC(=O)c1c2c(n3ccc(NC(=O)OC(C)(C)C)cc13)C(=O)c1ncccc1C2=O
[2]
  GI50: 0.186 µM
  TGI: 1.25 µM
[3]
  GI50: 1.21 µM
  TGI: 4.65 µM
[4]
  GI50: 0.0273 µM
  TGI: 0.123 µM
[7]
  GI50: 0.25 µM
  TGI: 2.05 µM
[8]
  GI50: 0.0389 µM
  TGI: 1.58 µM
[9]
  GI50: 0.174 µM
  TGI: 0.757 µM
[10]
  GI50: 0.179 µM
  TGI: 2.02 µM

## Cc1nccn1S(=O)(=O)c1ccc(Br)cc1Br
[1]
  TGI: 78.3 µM
[2]
  TGI: > 100 µM
[3]
  TGI: > 100 µM
[4]
  TGI: > 100 µM
[6]
  TGI: 46 µM
[7]
  TGI: > 100 µM
[8]
  TGI: > 100 µM
[10]
  TGI: > 100 µM

## CCOC(=O)c1c2c(n(-c3ccc(OC)cc3)c1C)C(=O)C(=O)c1ccccc1-2
[2]
  TGI: 4.46 µM
[3]
  TGI: 6.32 µM
[4]
  TGI: 5.36 µM
[5]
  TGI: 3.38 µM
[6]
  TGI: 0.351 µM
[7]
  TGI: 5.7 µM
[8]
  TGI: 2.82 µM
[9]
  TGI: 4.12 µM
[10]
  TGI: 4.32 µM

## CN1C/C(=C\c2ccc(Cl)cc2)C(=O)/C(=C/c2ccc(Cl)cc2)C1
[1]
  TGI: 5.47 µM
[2]
  TGI: > 100 µM
[3]
  TGI: > 100 µM
[4]
  TGI: 4.59 µM
[5]
  TGI: > 100 µM
[6]
  TGI: > 100 µM
[7]
  TGI: > 100 µM
[8]
  TGI: > 27.6 µM
[9]
  TGI: 8.7 µM
